Among the data in PubChem BioAssay (NCI) are TGI values, retold here.

Some test systems named below: T-47D breast; M14 melanoma; MCF7 breast; BT-549 breast; HS 578T breast; 786-0 renal; NCI-H460 lung; COLO 205 colon; MDA-MB-435; RXF 393 renal; MOLT-4 leukemia; MDA-N; DU-145 prostate; UACC-62 melanoma; HCC-2998 colon; OVCAR-8 ovarian; HOP-18 NSCLC; MDA-MB-231 breast; SNB-78 CNS; KM20L2 colon.
Assay in all cases: DTP human tumour cell line panel, 48 h

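These data come from cells grown in 96-well plates and exposed to compound for 48 hours at five concentrations. TGI: concentration producing complete growth inhibition.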 Where only a bound is given, the exact number is not on record here.

As to `Cc1ccc(S(N)(=O)=O)cc1`, the TGI with T-47D breast, in the experiment with M14 melanoma, with MCF7 breast, in the experiment on BT-549 breast, in the experiment with HS 578T breast and in the experiment on 786-0 renal was above 1000 µM in each case. The TGI with NCI-H460 lung, with COLO 205 colon, in the experiment on MDA-MB-435, in the experiment on RXF 393 renal, with MOLT-4 leukemia and in the experiment with MDA-N was above 1000 µM in each case. For the same compound, the TGI in the experiment on DU-145 prostate, in the experiment on UACC-62 melanoma, with HCC-2998 colon and in the experiment on OVCAR-8 ovarian was above 1000 µM each time.
With `CC[n+]1c(/C=C/c2ccc(N(CCCl)CCCl)cc2)ccc2cc(NC(=O)/C=C/c3ccccc3)ccc21`, the TGI with HOP-18 NSCLC was 13 µM; in the experiment with T-47D breast it was 1.5 µM; in the experiment on MDA-MB-231 breast, 1.09 µM; with M14 melanoma, 3.28 µM; in the experiment on MCF7 breast, 1.24 µM; in the experiment with BT-549 breast, 1.58 µM. The TGI with HS 578T breast came to 1.25 µM; in the experiment on 786-0 renal it was 3.22 µM; in the experiment on NCI-H460 lung, 1.36 µM; in the experiment with COLO 205 colon, 0.222 µM; with MDA-MB-435 it was 1.07 µM; with RXF 393 renal it was 2.84 µM. Further, the concentration for total growth inhibition (TGI) with MOLT-4 leukemia is 1.69 µM; in the experiment with SNB-78 CNS, 16 µM; in the experiment with MDA-N, 1.7 µM; in the experiment with DU-145 prostate, 1.64 µM; in the experiment with UACC-62 melanoma, 2.28 µM; in the experiment on HCC-2998 colon, 1.37 µM. In the experiment on OVCAR-8 ovarian, this compound yielded a concentration for total growth inhibition (TGI) of 5.7 µM.
For the compound `Cc1nc2ccccc2c(=O)[nH]1`, the concentration for total growth inhibition (TGI) in the experiment on HOP-18 NSCLC, with M14 melanoma, in the experiment with 786-0 renal, with NCI-H460 lung, in the experiment with COLO 205 colon and in the experiment on RXF 393 renal was above 100 µM in each case. The TGI in the experiment with MOLT-4 leukemia, in the experiment with SNB-78 CNS, with KM20L2 colon, with UACC-62 melanoma, in the experiment with HCC-2998 colon and in the experiment on OVCAR-8 ovarian was above 100 µM throughout.
`O=[N+]([O-])c1cn[n+]([O-])c2ccccc12`: the TGI turned out to be 18 µM with T-47D breast; 27.3 µM in the experiment on MDA-MB-231 breast; 13 µM with M14 melanoma; 50.1 µM in the experiment with MCF7 breast; 18.8 µM in the experiment with BT-549 breast; 29.1 µM with HS 578T breast. The TGI was 12.3 µM in the experiment on 786-0 renal; 24.5 µM with NCI-H460 lung; 26.5 µM with COLO 205 colon; 27.8 µM in the experiment on MDA-MB-435; 27.5 µM in the experiment on MDA-N; 3.79 µM with DU-145 prostate. For the same compound, the TGI with HCC-2998 colon was found to be 3.44 µM; in the experiment with OVCAR-8 ovarian it was 11.6 µM.
As for `COc1cc[n+](C)cc1`, the total growth inhibition concentration (TGI) in the experiment on HOP-18 NSCLC, with MCF7 breast, in the experiment with NCI-H460 lung, in the experiment on COLO 205 colon, with RXF 393 renal and in the experiment on MOLT-4 leukemia was above 100 µM in each case. Further, the concentration for total growth inhibition (TGI) with SNB-78 CNS, in the experiment on KM20L2 colon, with UACC-62 melanoma, in the experiment with HCC-2998 colon and with OVCAR-8 ovarian was above 100 µM throughout.
`Cc1cn(Cc2ccccc2CCl)c(=O)[nH]c1=O`: the TGI in the experiment on T-47D breast worked out at 44.8 µM; in the experiment on M14 melanoma, 28.2 µM; in the experiment with MCF7 breast, 19 µM; with HS 578T breast, 56.6 µM; in the experiment on 786-0 renal it was 30.2 µM; in the experiment with NCI-H460 lung it was 44.3 µM. The TGI in the experiment on COLO 205 colon is 45.7 µM; with MDA-MB-435 it was 29 µM; with RXF 393 renal, 23.9 µM; with MOLT-4 leukemia, above 100 µM; in the experiment with DU-145 prostate it was 31.3 µM; in the experiment on UACC-62 melanoma it was 28.2 µM. For the same compound, the TGI in the experiment with HCC-2998 colon worked out at 28.8 µM; with OVCAR-8 ovarian, 29.2 µM.
As to `Brc1ccccc1-c1ncc(-c2ccccc2)o1`, the concentration for total growth inhibition (TGI) in the experiment with T-47D breast is above 100 µM; with MDA-MB-231 breast, above 100 µM; in the experiment on M14 melanoma, above 100 µM; in the experiment with MCF7 breast, above 100 µM; in the experiment on BT-549 breast, above 100 µM; in the experiment with HS 578T breast, 41 µM. Further, the TGI with NCI-H460 lung is above 100 µM; in the experiment with COLO 205 colon, 39.5 µM; in the experiment with MDA-MB-435, 60.4 µM; in the experiment with RXF 393 renal it was 55.9 µM; with MOLT-4 leukemia, 49.6 µM; in the experiment with MDA-N, above 100 µM. Also, the TGI in the experiment on DU-145 prostate is above 100 µM; in the experiment on UACC-62 melanoma it was above 100 µM; with HCC-2998 colon, 80.4 µM; with OVCAR-8 ovarian, above 100 µM.
On to `N#Cc1c(NC(=S)NC(=O)c2ccccc2)nc2c(c1-c1ccccc1)CCCC2`, for which the TGI in the experiment with T-47D breast is above 100 µM; with MDA-MB-231 breast, above 100 µM; in the experiment with M14 melanoma it was above 100 µM; in the experiment with MCF7 breast, above 100 µM; in the experiment with BT-549 breast, 96.1 µM; with HS 578T breast, 35 µM. For the same compound, the total growth inhibition concentration (TGI) in the experiment on NCI-H460 lung was above 100 µM; in the experiment on COLO 205 colon it was above 100 µM; in the experiment with MDA-MB-435, above 100 µM; in the experiment on RXF 393 renal it was 56.5 µM; in the experiment on MOLT-4 leukemia, above 100 µM; with MDA-N, above 100 µM. Further, the concentration for total growth inhibition (TGI) in the experiment with DU-145 prostate, with UACC-62 melanoma and in the experiment on OVCAR-8 ovarian was above 100 µM each time.

For orientation: TGI means the concentration giving total growth inhibition. Read a high TGI as less potent growth arrest.
